Test results as given in PubChem BioAssay (NCI).
“And” between values parts separate entries of the source, which are not always exact repeats. Identical values can stand only once.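 Growth conditions: 96-well plates. Treatment: test compound, 48 hours, 5 concentrations. Analysis: linear interpolation between bracketing concentrations; unreached endpoints set to highest concentration. The concentration for 50% growth inhibition is given as GI50. TGI: total growth inhibition.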

How the values were obtained:
Assay in all cases: growth of human tumour cells (NCI), 48 h
[1] = system: SF-295 CNS
[2] = system: SF-268 CNS
[3] = system: HT29 colon
[4] = system: MOLT-4 leukemia
[5] = system: HS 578T breast
[6] = system: SR leukemia
[7] = system: EKVX NSCLC
[8] = system: LOX IMVI melanoma
[9] = system: NCI-H226 lung
[10] = system: K-562 leukemia

Structure (SMILES)	GI50 [1] [µM]	TGI [1] [µM]	GI50 [2] [µM]	TGI [2] [µM]	GI50 [3] [µM]	TGI [3] [µM]	GI50 [4] [µM]	TGI [4]	GI50 [5] [µM]	TGI [5] [µM]	GI50 [6] [µM]	TGI [6] [µM]	GI50 [7] [µM]	TGI [7] [µM]	GI50 [8] [µM]	TGI [8] [µM]	GI50 [9] [µM]	TGI [9] [µM]	GI50 [10] [µM]	TGI [10] [µM]
O=c1[nH]c2cc(Cl)c(Cl)cc2n2cc3ccccc3c12	16.2	29.9	23.7	42.6	29	> 100	18.7	36.7 µM	20.1	53	17.3	39	21.9	43.5	17.3	31	18.6	35.9	–	–
COc1ccc(NC(=O)c2sc3nc4c(cc3c2N)CCCC4)cc1	0.314	20.2	0.899	> 100	0.345	3.36	0.442	30.5 µM	0.567	> 100	0.3	16.3	1.13	> 100	0.686	> 100	–	–	0.309	> 100
CN(C)C/C=C/C(=O)Nc1ccc(C(=O)N2CCC[C@@H](Nc3ncc(Cl)c(-c4c[nH]c5ccccc45)n3)C2)cc1	0.685	4.01	0.125	1.78	0.285	4.2	0.182	3.55 µM	0.214	1.45	0.0337	1.03	0.827	7.5	0.0558	1.28	0.365	3.2	0.0863	> 100
c1cnc2[nH]cc(-c3csc(-c4cn(CCCN5CCCCC5)c5ccccc45)n3)c2c1	1.65	3.18	1.56	3.19	1.75	3.44	1.82	3.52 µM	2.34	7.22	1.89	3.74	–	–	–	–	–	–	1.74	3.52
C[C@@H]1C/C=C\C(=O)O[C@H](/C=C/C#C/C=C/C(C)(C)[C@@H](O)c2cccc(O)c2Br)[C@@H](C)/C=C/[C@H](C)C[C@H](OC(N)=O)C1	0.0212	0.0485	0.0402	18.2	0.029	5.77	0.034	40.8 µM	0.4	32.3	0.0273	> 100	0.0716	18.7	0.0167	0.0447	0.445	19	0.0332	> 32.7
Cc1cc(NC(=O)NC(=O)c2ccccc2N(C)C)ccc1Oc1ncc(Br)cn1	–	21.8	–	> 68.1	–	15.2	0.533	39.7 µM	–	> 100	0.135	–	–	> 68.1	0.582	> 63.1	1.88	> 90	0.21	27.3
COc1ccc(C(=O)C[C@]2(O)C(=O)Nc3c(Cl)ccc(Cl)c32)cc1	0.516	> 100	1.33	> 77.8	0.376	–	0.533	> 100 µM	0.555	> 100	0.243	> 100	0.892	> 100	0.581	> 100	3.02	> 100	0.258	> 100
Cc1cc(=O)oc2cc(OCCn3c(C)nn(-c4ccc(Cl)cc4)c3=O)ccc12	4.73	> 100	13.6	> 100	3.82	> 100	4.71	> 100 µM	2.82	> 100	0.497	6.67	> 100	> 100	4.83	> 100	–	–	1.29	> 100
COc1ccc2c(c1)nc1n2C(c2ccc(F)cc2)SC1 (configuration not stated)	27.9	> 100	33.8	> 100	–	–	26.8	> 100 µM	28.3	70.5	–	–	21.8	61.9	24.8	61	19.1	54.1	42.3	> 100
Cn1cnc([N+](=O)[O-])c1Sc1nc(N)nc2nc[nH]c12	0.635	> 100	2.39	> 100	5.19	> 100	3.55	> 100 µM	14.5	> 100	0.682	> 100	3.9	> 100	0.488	> 100	7.5	> 100	4.2	> 100
O=C(O)Cn1ccnc1[N+](=O)[O-]	–	> 100	–	> 100	–	> 100	–	> 100 µM	–	> 100	–	> 100	–	> 100	–	–	–	> 100	–	> 100
O=C(Nc1ccccc1O)c1ccc(CNC(=O)c2ccsc2Nc2ccnc(C(F)(F)F)c2)cc1	1.86	4.51	2.69	15.1	3.05	12.6	0.956	9.48 µM	2.71	16.2	2.81	29.1	3.09	14.5	1.63	3.99	2.48	30.9	1.62	> 100
COc1cc(O)c(C(C)=O)c(O)c1	–	> 100	–	> 100	–	> 100	–	–	–	> 100	–	> 100	–	> 100	–	> 100	–	–	–	> 100
C/C(=N\n1c(N)c(C#N)c(-c2ccc(Cl)cc2)c(C#N)c1=O)c1ccncc1	4.65	86	9.83	61.4	> 100	> 100	> 100	> 100 µM	6.4	75.8	3.3	> 100	6.13	> 100	35.4	> 100	18.5	54.5	> 100	> 100
CC1(C)C2CCC13C(=O)C1OC3(C2)C2C(=O)c3c(O)cccc3C(=O)C12 (configuration not stated)	0.156	0.442	3.06	15.3	3.58	9.4	0.111	–	0.988	2.86	–	–	8.37	21.4	–	–	7.68	23.8	0.703	1.79
CC[C@@]1(O)C(=O)OCc2c1cc1n(c2=O)Cc2cc3c(N)cccc3nc2-1	0.00874	2.37	0.00728	3.06	0.0774	> 30.1	0.00295	0.0605 µM and 0.0649 µM	0.0865	> 60.7	0.00165	–	–	7.96	0.00462	0.255	0.0179	0.105	0.0277	> 100
CCOCNc1ccc(N2C(=O)/C(=C/c3ccc(N(CC)CC)cc3)N=C2c2ccccc2)cc1	9.8	> 100	7.73	> 100	6.88	> 100	4.57	> 100 µM	17	> 100	6.5	> 100	> 100	> 100	2.48	> 100	8.24	> 100	2.87	> 100
Cn1cc(CO)c2ccccc21	34.2	> 100	60.6	> 100	30.2	> 100	40	> 100 µM	38.5	> 100	17.9	> 100	50.7	> 100	–	–	64.1	> 100	17.5	> 100
NC(=O)c1cc(I)ccc1NC(=O)COc1ccccc1	0.256	3.39	1.14	26.1	0.367	> 100	1.05	> 78.4 µM	0.462	36.1	0.285	> 74.1	–	–	1.01	> 100	3.48	> 100	0.214	24.2
Fc1c[c-]c(-c2ccccn2)c(F)c1.[CH3-].[Pt+2].c1ccc(P(C[PH+](c2ccccc2)c2ccccc2)c2ccccc2)cc1	0.708	1.82	0.86	6.88	0.5	3.73	0.825	5.81 µM	0.864	2.9	–	–	0.495	1.96	0.539	1.28	0.559	2.09	0.365	6.95
O=C(Nc1ccc(Cl)cc1)Nc1ccccc1CNc1nc(Nc2ccc(OCCN3CCCC3)cc2)ncc1Cl	7.65	14.6	1.29	4.04	1.19	3.28	1.19	2.99 µM	7.02	19	1.7	50	1.55	6.63	0.901	1.64	–	–	1.16	2.82
COc1ccc2[nH]c(-c3ccccc3)cc2c1	84.7	> 100	> 100	> 100	> 100	> 100	> 100	> 100 µM	> 100	> 100	–	–	59	> 100	> 100	> 100	> 100	> 100	86.8	> 100
O=C(/C=C/c1cn(-c2ccccc2)nc1-c1ccc([N+](=O)[O-])cc1)c1ccc(Cl)cc1	2.68	12.3	2.78	> 100	–	–	1.27	> 100 µM	1.92	5.64	2.76	> 100	> 22.3	> 100	–	–	–	> 100	0.0883	2.73
COc1ccc(-c2cc(/C=C/C(=O)c3cc(OC)c(OC)c(OC)c3)[nH]n2)cc1OC	1.67	4.26	1.68	3.9	1.3	2.73	1.81	8.86 µM	2.91	22.2	0.22	2.26	–	–	1.46	2.88	1.93	7.91	0.731	9.71
O=c1oc2ccc(F)cc2c(=O)n1-c1ccc(Br)cc1F	1.82	3.63	0.633	13.7	3.4	> 44.3	–	–	0.621	7.87	0.578	> 100	1.85	9.74	0.456	4.24	1.08	4.87	0.422	> 100
CCCCCCCCCCCCCCCCS(=O)(=O)c1ccc(NN)cc1	–	> 10	–	> 10	–	> 10	–	> 10 µM	–	> 10	–	> 10	–	> 10	–	> 10	–	–	–	> 10
Cc1ccc(-n2c3c(c4c(CN5CCOCC5)c(O)ccc42)CCc2ccccc2C3=O)cc1	> 100	> 100	73.7	> 100	–	0.241	35.1	> 100 µM	> 100	> 100	–	–	> 100	> 100	> 100	> 100	78.1	> 100	25.8	> 100
COc1ccc2cc(-c3c(-c4ccncc4)nc(-c4ccc(S(C)=O)cc4C)n3C)ccc2c1 (configuration not stated)	16.6	> 25	> 25	> 25	10.6	> 25	17.4	> 25 µM	> 25	> 25	–	–	8.34	> 25	16.4	> 25	> 20.5	> 25	13.4	> 25
